In patent US4166810A, “Derivatives of 4-desacetyl VLB C-3 carboxyhydrazide” (priority 1978, dated 1979):
Like-named read-outs stand apart in the source and are kept apart here.

Legend:
[1] = tested on: Gardner lymphosarcoma (GLS); assay: Transplanted tumor growth inhibition in mice, Gardner lymphosarcoma (GLS); assay type: in vivo
Experimental: (§1) The compounds of this invention are active in inhibiting the growth of transplanted tumors in mice and/or in prolonging the life of tumor-innoculated mice. […] The size of the tumor was measured at 7 or 11 days where the drug inhibited tumor growth. Where life-prolongation was concerned, extra life span of treated animals over that of control animals was determined.
(§2) The following table--Table 1--gives the results of experiments in which mice bearing transplanted tumors were treated successfully with a compound of this invention. In the table, column 1 gives the name of the compound; column 2, the transplanted tumor; column 3, the dose level or dose level range and the number of days the dosage was administered; and column 4, the percent inhibition of tumor growth or percent prolongation of survival time, e.g., B16 (ROS is an abbreviation for Ridgeway osteogenic sarcoma; GLS for Gardner lymphosarcoma; P 1534 (J) for a leukemia and B16 for a malignant melanoma.

[2] = tested on: Ridgeway osteogenic sarcoma (ROS); assay: Transplanted tumor growth inhibition in mice, Ridgeway osteogenic sarcoma (ROS); assay type: in vivo
Experimental: as §1, §2

[3] = tested on: experimental malignancies; details: animals; cited from earlier work
[4] = 0.5 mg/kg × 10 days, measured at 7 days
[5] = 0.5 mg/kg × 10 days, measured at 11 days
[6] = Mus musculus, 168 h, 0.125 mg/kg × 10 days, measured at 7 days, read-out: Percent Inhibition (of tumor growth), 7 days
[7] = Mus musculus, 168 h, 0.25 mg/kg × 10 days, measured at 7 days, read-out: Percent Inhibition (of tumor growth), 7 days
[8] = Mus musculus, 264 h, 0.125 mg/kg × 10 days, measured at 11 days, read-out: Percent Inhibition (of tumor growth), 11 days
[9] = Mus musculus, 168 h, 0.2 mg/kg × 9 days, 7 days, read-out: Percent Inhibition (of tumor growth), 7 days
[10] = Mus musculus, 264 h, 0.25 mg/kg × 10 days, measured at 11 days, read-out: Percent Inhibition (of tumor growth), 11 days
[11] = 0.25 mg/kg × 10 days, measured at 11 days
[12] = Mus musculus, 168 h, 0.5 mg/kg × 10 days, measured at 7 days, read-out: Percent Inhibition (of tumor growth), 7 days

| Molecule | Percent Inhibition (of tumor growth), 7 days [1, 4] | Percent Inhibition (of tumor growth), 11 days [1, 5] | inhibition in vivo at 0.125 mg/kg [1, 6] [%] | inhibition in vivo at 0.25 mg/kg [1, 7] [%] | inhibition in vivo at 0.125 mg/kg [1, 8] [%] | activity in the treatment of experimental malignancies [3] | further results |
| --- | --- | --- | --- | --- | --- | --- | --- |
| CCC1(O)CC2CN(CCc3c([nH]c4ccccc34)C(C(=O)OC)(c3cc4c(cc3OC)N(C)C3C(O)(C(=O)NN(C)C)C(O)C5(CC)C=CCN6CCC43C65)C2)C1 (stereo not drawn) [4-Desacetyl VLB C-3 N^2,N^2-dimethylcarboxhydrazide] | Toxic | Toxic | 100 | 100 | 93 |  |  |
| CCC1(O)CC2CN(CCc3c([nH]c4ccccc34)C(C(=O)OC)(c3cc4c(cc3OC)N(C)C3C(O)(C(=O)NNCCO)C(O)C5(CC)C=CCN6CCC43C65)C2)C1 (stereo not drawn) [4-Desacetyl VLB C-3 N^2-(β-hydroxy)ethylcarboxhydrazide] | Toxic | Toxic | 77 | 100 | 37 |  | inhibition in vivo at 0.1 mg/kg ([1]; Mus musculus, 168 h, 0.1 mg/kg × 9 days, 7 days, read-out: Percent Inhibition (of tumor growth), 7 days): 0%; inhibition in vivo at 0.2 mg/kg [1, 9]: 100%; inhibition in vivo at 0.3 mg/kg ([1]; Mus musculus, 168 h, 0.3 mg/kg × 7 days, measured at 7 days, read-out: Percent Inhibition (of tumor growth), 7 days): 20%; inhibition in vivo at 0.3 mg/kg ([1]; Mus musculus, 168 h, 0.3 mg/kg × 9 days, 7 days, read-out: Percent Inhibition (of tumor growth), 7 days): 17%; inhibition in vivo at 0.5 mg/kg ([1]; Mus musculus, 168 h, 0.5 mg/kg × 7 days, measured at 7 days, read-out: Percent Inhibition (of tumor growth), 7 days): 90%; inhibition in vivo at 0.25 mg/kg [1, 10]: 40%; Percent Inhibition (of tumor growth), 7 days ([2]; 0.2 mg/kg × 10 days): 0%; Percent Inhibition (of tumor growth), 7 days ([2]; 0.3 mg/kg × 10 days): 14%; Percent Inhibition (of tumor growth), 7 days ([2]; 0.5 mg/kg × 10 days): Toxic |
| CCC1(O)CC2CN(CCc3c([nH]c4ccccc34)C(C(=O)OC)(c3cc4c(cc3OC)N(C)C3C(O)(C(=O)NNC(=O)c5ccccc5)C(O)C5(CC)C=CCN6CCC43C65)C2)C1 (stereo not drawn) [4-Desacetyl VLB C-3 N^2-benzoylcarboxhydrazide] | Toxic | Toxic | 76 | 100 | 45 |  | Percent Inhibition (of tumor growth), 11 days [1, 11]: Toxic |
| CCOC(=O)NNC(=O)C1(O)C(O)C2(CC)C=CCN3CCC4(c5cc(C6(C(=O)OC)CC7CN(CCc8c6[nH]c6ccccc86)CC(O)(CC)C7)c(OC)cc5N(C)C14)C32 (stereo not drawn) [4-Desacetyl VLB C-3 N^2-ethylcarbazylcarboxhydrazide] |  |  |  |  |  |  | inhibition in vivo at 0.2 mg/kg ([1]; Mus musculus, 168 h, 0.2 mg/kg × 7 days, measured at 7 days, read-out: Percent Inhibition (of tumor growth), 7 days): 100%; inhibition in vivo at 0.4 mg/kg ([1]; Mus musculus, 168 h, 0.4 mg/kg × 7 days, measured at 7 days, read-out: Percent Inhibition (of tumor growth), 7 days): 93%; Percent Inhibition (of tumor growth), 7 days ([2]; 0.2 mg/kg × 10 days): 66%; Percent Inhibition (of tumor growth), 7 days ([2]; 0.4 mg/kg × 10 days): Toxic |
| CCNNC(=O)C1(O)C(O)C2(CC)C=CCN3CCC4(c5cc(C6(C(=O)OC)CC7CN(CCc8c6[nH]c6ccccc86)CC(O)(CC)C7)c(OC)cc5N(C)C14)C32 (stereo not drawn) [4-Desacetyl VLB C-3 N^2-ethylcarboxhydrazide] | Toxic | Toxic |  | 100 |  |  | Percent Inhibition (of tumor growth), 11 days [1, 11]: Toxic |
| CC=NNC(=O)C1(O)C(O)C2(CC)C=CCN3CCC4(c5cc(C6(C(=O)OC)CC7CN(CCc8c6[nH]c6ccccc86)CC(O)(CC)C7)c(OC)cc5N(C)C14)C32 (stereo not drawn) [4-Desacetyl VLB C-3 N^2-ethylidenecarboxhydrazide] |  |  |  |  |  |  | Percent Inhibition (of tumor growth), 7 days ([1]; 0.4 mg/kg × 9 days, 7 days): Toxic; inhibition in vivo at 0.2 mg/kg [1, 9]: 100%; Percent Inhibition (of tumor growth), 7 days ([2]; 0.2 mg/kg × 9 days): 100%; Percent Inhibition (of tumor growth), 7 days ([2]; 0.4 mg/kg × 9 days): Toxic |
| CCC1(O)CC2CN(CCc3c([nH]c4ccccc34)C(C(=O)OC)(c3cc4c(cc3OC)N(C)C3C(O)(C(=O)NN=C(C)C)C(O)C5(CC)C=CCN6CCC43C65)C2)C1 (stereo not drawn) [4-Desacetyl VLB C-3 N^2-isopropylidenecarboxhydrazide] |  |  |  |  |  |  | Percent Inhibition (of tumor growth), 7 days ([2]; 0.05 mg/kg × 10 days): 33%; Percent Inhibition (of tumor growth), 7 days ([2]; 0.1 mg/kg × 10 days): 42%; Percent Inhibition (of tumor growth), 7 days ([2]; 0.15 mg/kg × 10 days): 74%; Percent Inhibition (of tumor growth), 7 days ([2]; 0.2-1.0 mg/kg × 10 days): Toxic |
| CCC1(O)CC2CN(CCc3c([nH]c4ccccc34)C(C(=O)OC)(c3cc4c(cc3OC)N(C)C3C(O)(C(=O)NNC)C(O)C5(CC)C=CCN6CCC43C65)C2)C1 (stereo not drawn) [4-Desacetyl VLB C-3 N^2-methylcarboxhydrazide] |  |  | 83 |  | 53 |  | Percent Inhibition (of tumor growth), 7 days ([1]; 0.25-0.5 mg/kg × 10 days, measured at 7 days): Toxic; Percent Inhibition (of tumor growth), 11 days ([1]; 0.25-0.5 mg/kg × 10 days, measured at 11 days): Toxic |
| C=NNC(=O)C1(O)C(O)C2(CC)C=CCN3CCC4(c5cc(C6(C(=O)OC)CC7CN(CCc8c6[nH]c6ccccc86)CC(O)(CC)C7)c(OC)cc5N(C)C14)C32 (stereo not drawn) [4-Desacetyl VLB C-3 N^2-methylidenecarboxhydrazide] | Toxic | Toxic | 91 | 100 | 91 |  | inhibition in vivo at 0.25 mg/kg [1, 10]: 100% |
| CCC1(O)CN2CCc3c([nH]c4ccccc34)C(C(=O)OC)(c3cc4c(cc3OC)N(C)C3C(O)(C(=O)OC)CC5(CC)C=CCN6CCC43C65)CC(C2)C1O (stereo not drawn) [4-desacetoxy-3'-hydroxyvinblastine] |  |  |  |  |  | found active in the treatment of experimental malignancies in animals |  |
| CCC1(O)CC2CN(CCc3c([nH]c4ccccc34)C(C(=O)OC)(c3cc4c(cc3OC)N(C)C3C(O)(C(=O)OC)CC5(CC)C=CCN6CCC43C65)C2)C1 (stereo not drawn) [4-desacetoxyvinblastine] |  |  |  |  |  | found active in the treatment of experimental malignancies in animals |  |
| CCC1(O)CC2CN(CCc3c([nH]c4ccccc34)C(C(=O)OC)(c3cc4c(cc3OC)N(C)C3C(O)(C(=O)NNCCOC(C)=O)C(O)C5(CC)C=CCN6CCC43C65)C2)C1 (stereo not drawn) [4-desacetyl VLB C-3 N^2-(β-acetoxy)ethylcarboxhydrazide] |  |  | 74 | 100 | 26 |  | inhibition in vivo at 0.5 mg/kg [1, 12]: 100%; inhibition in vivo at 0.25 mg/kg [1, 10]: 73%; inhibition in vivo at 0.5 mg/kg ([1]; Mus musculus, 264 h, 0.5 mg/kg × 10 days, measured at 11 days, read-out: Percent Inhibition (of tumor growth), 11 days): 100% |
| CCCC(=O)NNC(=O)C1(O)C(O)C2(CC)C=CCN3CCC4(c5cc(C6(C(=O)OC)CC7CN(CCc8c6[nH]c6ccccc86)CC(O)(CC)C7)c(OC)cc5N(C)C14)C32 (stereo not drawn) [4-desacetyl VLB C-3 N^2-butyrylcarboxhydrazide] |  | Toxic | 100 | 100 | 100 |  | inhibition in vivo at 0.5 mg/kg [1, 12]: 64%; inhibition in vivo at 0.25 mg/kg [1, 10]: 100% |
| CC[C@]1(O)C[C@@H]2CN(CCc3c([nH]c4ccccc34)[C@@](C(=O)OC)(c3cc4c(cc3OC)N(C)[C@H]3[C@@](O)(C(=O)OC)[C@H](OC(C)=O)[C@]5(CC)C=CCN6CC[C@]43[C@@H]65)C2)C1 [VLB, vincaleukoblastine] |  |  |  |  |  | found active in the treatment of experimental malignancies in animals |  |
| CCC1CC2CN(CCc3c([nH]c4ccccc34)C(C(=O)OC)(c3cc4c(cc3OC)N(C)C3C(O)(C(=O)OC)C(OC(C)=O)C5(CC)C=CCN6CCC43C65)C2)C1 (stereo not drawn) [deoxy VLB "A"] |  |  |  |  |  | found active in the treatment of experimental malignancies in animals |  |
| CCC1(O)CN2CCc3c([nH]c4ccccc34)C(C(=O)OC)(c3cc4c(cc3OC)N(C)C3C(O)(C(=O)OC)C(OC(C)=O)C5(CC)C=CCN6CCC43C65)CC(O)(C2)C1 (stereo not drawn) [leurocolombine] |  |  |  |  |  | found active in the treatment of experimental malignancies in animals |  |
| CC[C@]12CN3CCc4c([nH]c5ccccc45)[C@@](C(=O)OC)(c4cc5c(cc4OC)N(C=O)[C@H]4[C@@](O)(C(=O)OC)[C@H](OC(C)=O)[C@]6(CC)C=CCN7CC[C@]54[C@@H]76)C[C@@H](C3)[C@H]1O2 [leuroformine] |  |  |  |  |  | found active in the treatment of experimental malignancies in animals |  |
| VLB C-3 N^2 -(β-acetoxy)ethyl-carboxhydrazide | 100% | 87% |  |  |  |  | Percent Inhibition (of tumor growth), 7 days ([1]; 0.125 mg/kg × 10 days, measured at 7 days): 36%; Percent Inhibition (of tumor growth), 11 days ([1]; 0.125 mg/kg × 10 days, measured at 11 days): 35%; Percent Inhibition (of tumor growth), 7 days ([1]; 0.25 mg/kg × 10 days, measured at 7 days): 74%; Percent Inhibition (of tumor growth), 11 days [1, 11]: 55% |
